Where a name gives a salt, the structure may show the parent alone.

For one experiment, the target named is T1, KRAS-G12D and SOS1 (Homo sapiens, UniProt P01116, G12D).
T1 construct: purchased
The experiment in a line: Inhibition of KRAS-G12D/SOS1 binding (Cisbio binding kit, 665/615 ratio), Effect Embodiment A. Conditions: read-out: GTP-KRAS-G12D:SOS1 IC50. The method in brief:
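Compounds underwent 3-fold dilution from their storage solutions (11 points), were transferred to assay wells in duplicate with DMSO held at 1% final, and were briefly centrifuged.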

Another experiment concerns the target T2, KRAS_G12D and cRAF (Homo sapiens, UniProt P01116, G12D).
T2 construct: purchased
The experiment in a line: Inhibition of KRAS_G12D/cRAF binding (Cisbio binding kit, 665/615 ratio), Effect Embodiment B. Conditions: read-out: GTP-KRAS-G12D:CRAF IC50. The protocol: (§1) Similarly, the first dilution point of the compound to be tested was its storage solution, and the solution was 3-fold diluted, with 11+0 points of dilution. Echo was used to transfer 0.2 μL gradient diluted solution of the compounds into a 384-well plate, with 2 duplicated wells for each compound, and the final concentration of DMSO was 1%. The solution was centrifuged for 1 min at 1000 rpm/min.
(§2) IC50 of the compounds was fitted by Graphpad Prism 8 nonlinear regression equation: […]
(§3) The IC50 (half inhibitory concentration) of the compound was obtained by using the following nonlinear fitting formula: […]

A further experiment concerns the target T3, KRAS_WT and SOS1 (Homo sapiens, UniProt P01116).
T3 construct: purchased
In words: Inhibition of KRAS_WT/SOS1 binding (Cisbio binding kit, 665/615 ratio), Effect Embodiment C. The note with it: read-out: GTP-KRAS-WT:SOS1 IC50. The protocol:
The inhibitory ability of small molecule compounds on the binding activity of KRAS_WT and SOS1 was examined by a drug screening system based on the combination of KRAS_WT and SOS1.
as §1, §2, §3

T2 sequence (P01116 1-188 isoform P01116-2 G12D): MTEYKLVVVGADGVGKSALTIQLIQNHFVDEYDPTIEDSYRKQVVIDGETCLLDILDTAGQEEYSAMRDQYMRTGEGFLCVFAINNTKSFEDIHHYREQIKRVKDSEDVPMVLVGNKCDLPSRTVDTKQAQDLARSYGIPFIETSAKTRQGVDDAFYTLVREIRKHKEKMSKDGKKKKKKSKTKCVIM
T1 sequence (P01116 1-188 isoform P01116-2 G12D): as above
T3 sequence (P01116 1-188 isoform P01116-2): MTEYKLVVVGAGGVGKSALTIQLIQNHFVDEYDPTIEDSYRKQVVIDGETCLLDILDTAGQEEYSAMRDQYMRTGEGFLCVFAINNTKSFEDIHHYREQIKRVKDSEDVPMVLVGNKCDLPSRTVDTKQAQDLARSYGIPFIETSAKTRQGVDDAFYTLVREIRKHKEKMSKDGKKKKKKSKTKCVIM

Take `CN1CC[C@H]1COc1nc(N2CC3CCC(C2)N3)c2cc(Cl)c(-c3cc(O)cc4ccccc34)c(F)c2n1` (single isomer, unassigned) [Compound 100, 4-((S or R)-4-((1R,5S)-3,8-diazabicyclo[3.2.1]octan-3-yl)-6-chloro-8-fluoro-2-(S)-1-methylazetidin-2-yl)methoxy)quinazolin-7-yl)naphthalen-2-ol bitrifluoroacetate]: the IC50 at KRAS-G12D and SOS1 was 19.1 nM; at KRAS_G12D and cRAF, 53.7 nM; on KRAS_WT and SOS1 it was 504 nM.
The like results for `CN1CCC[C@H]1COc1nc(N2CCN(C(=O)CN)[C@@H](CC#N)C2)c2cc(Cl)c(-c3cc(O)cc4ccccc34)c(F)c2n1` (single isomer, unassigned) [Compound 155, 2-((S)-4-((S or R)-6-chloro-8-fluoro-7-(3-hydroxynaphthalen-1-yl)-2-((S)-1-methylpyrrolidine-2-yl)methoxy)quinazolin-4-yl)-1-glycylpiperazin-2-yl)acetonitrile ditrifluoroacetate] were, in that order, 78.8 nM, 312 nM and 243 nM.
With `Oc1cc(-c2c(Cl)cc3c(N4CC5CCC(C4)N5)nc(OCC45CCN(CC4)CC5)nc3c2F)c2ccccc2c1` (single isomer, unassigned) [Compound 260, 4-((S or R)-4-((1R,5S)-3,8-diazacyclo[3.2.1]octan-3-yl)-6-chloro-8-fluoro-2-(quinin-4-ylmethoxy)quinazolin-7-yl)naphthalen-2-ol diformate], the IC50 was found to be 25.9 nM on KRAS-G12D and SOS1; 157 nM at KRAS_G12D and cRAF; 4420 nM on KRAS_WT and SOS1.
The like results for `Oc1cc(-c2c(Cl)cc3c(N4CC5CCC(C4)N5)nc(N4CCNCC4)nc3c2F)c2ccccc2c1` (single isomer, unassigned) [Compound 57b, 4-((R or S)-4-((1R,5S)-3,8-diazabicyclo[3.2.1]octan-3-yl)-6-chloro-8-fluoro-2-(piperazin-1-yl)quinazolin-7-yl)naphthalen-2-ol] were, in that order, 419 nM, 7910 nM and 44500 nM.
The matching figures for `Oc1cc(-c2c(Cl)cc3c(N4CC5CCC(C4)N5)nc(OCCCN4CC5(CCOC5)C4)nc3c2F)c2ccccc2c1` (single isomer, unassigned) [Compound 263, 4-((S or R)-2-(3-(6-oxa-2-azaspiro[3.4]octan-2-yl)propoxy)-4-((1R,5S)-3,8-diazacyclo[3.2.1]octan-3-yl)-6-chloro-8-fluoroquinazolin-7-yl)naphthalen-2-ol formate]: 23.1 nM, 118 nM and 863 nM.
The matching figures for `CN1CCC[C@H]1COc1nc(N2C[C@H]3C=C[C@@H](C2)N3)c2cnc(-c3cc(O)cc4ccccc34)c(F)c2n1` [Compound 159, 4-(4-((1R,5S)-3,8-diazabicyclo[3.2.1]oct-6-en-3-yl)-8-fluoro-2-(((S)-1-methylpyrrolidin-2-yl)methoxy)pyrido[4,3-d]pyrimidin-7-yl)naphthalen-2-ol diformate]: 30.8 nM, 55.2 nM and 196 nM.
Regarding `Oc1cc(-c2c(Cl)cc3c(N4CC5CCC(C4)N5)nc(OCC4(CN5CCCC5)CC4)nc3c2F)c2ccccc2c1` (single isomer, unassigned) [Compound 97, 4-((S or R)-4-((1R,5S)-3,8-diazabicyclo[3.2.1]octan-3-yl)-6-chloro-8-fluoro-2-((1-(pyrrolidin-1-ylmethyl)cyclopropyl)methoxy)quinazolin-7-yl)naphthalen-2-ol], the IC50 came out at 18.9 nM at KRAS-G12D and SOS1; 15.6 nM on KRAS_G12D and cRAF; 291 nM on KRAS_WT and SOS1.
The matching figures for `Oc1cc(-c2c(Cl)cc3c(N4CC5CCC(C4)N5)nc(OCC45CCCN4CCC5)nc3c2F)c2ccccc2c1` (single isomer, unassigned) [Compound 58a, 4-((S or R)-4-((1R,5S)-3,8-diazabicyclo[3.2.1]octan-3-yl)-6-chloro-8-fluoro-2-((tetrahydro-1H-pyrrolin-7a(5H)-yl)methoxy)quinazolin-7-yl)naphthalen-2-o1]: 20.4 nM, 12.6 nM and 47.2 nM.

For orientation: IC50 means the concentration that gives 50% inhibition.

The values above are taken from patent US20230365563A1, “QUINAZOLINE COMPOUND AND APPLICATION THEREOF” (SHANGHAI PHARMACEUTICALS HOLDING CO., LTD., priority 2020, published 2023).
